We go through 2 compounds from US20220241312A1, “COMPOUNDS FOR TREATING CANCER” (Tems Pharmaceuticals, Inc., priority 2019, published 2022).

Broadly, the CC50 is the concentration giving 50% cytotoxicity.

The test system of data set [1] is liver cancer cell line HepG2. Kind of data set: Cytotoxicity assay (CellTiter Glo), HepG2. The format is cell-based. The conditions noted are these: Homo sapiens, 72 h or 120 h incubation, Compound No. 1 tested as TEA salt. As for the experimental part:
(§1) Cytotoxicity of the test compounds were determined for multiple cell lines including gastric cancer cell lines NCI-N-87-luc and MKN45; liver cancer cell lines HepG2, Hep3B, and Huh7; pancreatic cell lines MIAPACA-2 and PANC-1; and colon cancer cell lines HT-29 and HCT-116.
(§2) Test compounds were prepared as 10 mM stock solutions. 5-FU, the control compound, was also prepared as a 10 mM stock solution. 45 μL of stock solution was transferred to a 384 polypropylene plate. The test and control compounds were then serially diluted 3 fold 10 times by transferring 15 μL compound solution into 30 μL DMSO by using TECAN (EVO200) liquid handler. […]
(§3) For each cell line assayed, cells were grown in a flask and then were harvested from the flask into cell culture medium. The cell number was counted and the cells were diluted with cell culture medium to the 2.5*10^4 cells/mL. […]
(§4) The cell culture plates were covered with a lid, placed at room temperature for 30 min without shaking, and transferred into a 37° C. […] On the desired day, cytotoxicity of the compounds was detected using CellTiter Glo. […] 40 μL of CellTiter-Glo reagent was added into each well to be detected (at 1:1 to culture medium). The plates were placed at room temperature for 30 min and then luminescence was detected using an EnSpire plate reader. […]
Background: Cellular ATP, detected with luciferase, serves as a proxy for viable cell number.

The target in data set [2] is T1, dihydropyrimidine dehydrogenase (DPD) (Homo sapiens, UniProt Q12882).
T1 sequence (Q12882 4-1025): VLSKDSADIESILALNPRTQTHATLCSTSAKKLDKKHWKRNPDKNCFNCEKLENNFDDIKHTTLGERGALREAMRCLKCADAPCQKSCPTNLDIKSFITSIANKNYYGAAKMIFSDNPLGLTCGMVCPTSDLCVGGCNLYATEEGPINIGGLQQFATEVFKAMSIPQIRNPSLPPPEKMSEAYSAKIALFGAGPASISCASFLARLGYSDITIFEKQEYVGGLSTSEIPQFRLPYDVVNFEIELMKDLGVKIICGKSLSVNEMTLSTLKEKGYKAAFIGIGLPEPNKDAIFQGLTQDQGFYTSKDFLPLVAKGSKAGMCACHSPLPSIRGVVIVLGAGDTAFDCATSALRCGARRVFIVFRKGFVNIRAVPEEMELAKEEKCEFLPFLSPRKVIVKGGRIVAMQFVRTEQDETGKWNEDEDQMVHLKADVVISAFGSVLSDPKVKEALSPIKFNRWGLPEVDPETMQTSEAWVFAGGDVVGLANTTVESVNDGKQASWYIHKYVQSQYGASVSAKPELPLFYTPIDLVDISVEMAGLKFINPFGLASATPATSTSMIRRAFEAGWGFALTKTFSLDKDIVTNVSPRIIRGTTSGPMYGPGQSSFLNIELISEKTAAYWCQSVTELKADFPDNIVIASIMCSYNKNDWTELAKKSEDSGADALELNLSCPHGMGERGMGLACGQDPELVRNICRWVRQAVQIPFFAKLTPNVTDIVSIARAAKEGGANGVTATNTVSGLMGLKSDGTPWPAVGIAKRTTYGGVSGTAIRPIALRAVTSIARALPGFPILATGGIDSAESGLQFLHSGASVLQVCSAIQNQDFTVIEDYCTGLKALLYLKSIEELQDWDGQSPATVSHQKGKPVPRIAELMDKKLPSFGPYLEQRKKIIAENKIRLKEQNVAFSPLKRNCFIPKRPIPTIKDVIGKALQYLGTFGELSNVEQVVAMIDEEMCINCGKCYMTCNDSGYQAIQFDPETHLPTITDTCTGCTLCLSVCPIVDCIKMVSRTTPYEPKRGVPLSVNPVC
The conditions noted are these: background statement; cited from earlier work.

Data set [3] relates to gastric cancer cell line MKN45. Kind of data set: Cytotoxicity assay (CellTiter Glo), MKN45. The format is cell-based. The conditions noted are these: Homo sapiens, MKN-45, 72 h or 120 h incubation, Compound No. 1 tested as TEA salt. As for the experimental part:
as §1, §2, §3, §4

Data set [4] deals with colon cancer cell line HT-29. Kind of data set: Cytotoxicity assay (CellTiter Glo), HT-29. The format is cell-based. The conditions noted are these: Homo sapiens, 72 h or 120 h incubation, Compound No. 1 tested as TEA salt. As for the experimental part: as §1, §2, §3, §4
Data set [5] deals with pancreatic cell line PANC-1. Kind of data set: Cytotoxicity assay (CellTiter Glo), PANC-1. The format is cell-based. The conditions noted are these: Homo sapiens, 72 h or 120 h incubation, Compound No. 1 tested as TEA salt. On the procedure: as §1, §2, §3, §4
The test system of data set [6] is gastric cancer cell line NCI-N-87-luc. Kind of data set: Cytotoxicity assay (CellTiter Glo), NCI-N-87-luc. The conditions noted are these: 72 h or 120 h incubation, Compound No. 1 tested as TEA salt. The format is cell-based. As for the experimental part: as §1, §2, §3, §4
For data set [7], the system named is colon cancer cell line HCT-116. Kind of data set: Cytotoxicity assay (CellTiter Glo), HCT-116. The format is cell-based. The conditions noted are these: Homo sapiens, 72 h or 120 h incubation, Compound No. 1 tested as TEA salt. As for the experimental part: as §1, §2, §3, §4
In data set [8] the test system is liver cancer cell line Huh7. Kind of data set: Cytotoxicity assay (CellTiter Glo), Huh7. The format is cell-based. The conditions noted are these: Homo sapiens, Huh-7, 72 h or 120 h incubation, Compound No. 1 tested as TEA salt. As for the experimental part: as §1, §2, §3, §4
The subject of data set [9] is pancreatic cell line MIAPACA-2. Kind of data set: Cytotoxicity assay (CellTiter Glo), MIAPACA-2. The conditions noted are these: Homo sapiens, MIA PaCa-2, 72 h or 120 h incubation, Compound No. 1 tested as TEA salt. The format is cell-based. As for the experimental part: as §1, §2, §3, §4
Data set [10] deals with liver cancer cell line Hep3B. Kind of data set: Cytotoxicity assay (CellTiter Glo), Hep3B. The format is cell-based. The conditions noted are these: Homo sapiens, 72 h or 120 h incubation, Compound No. 1 tested as TEA salt. On the procedure: as §1, §2, §3, §4

Structures can show the parent of a compound that is named as a salt.

In the case of `O=c1[nH]cc(F)c(=O)[nH]1` [5-FU, 5-Fluorouracil], the half-maximal cytotoxic concentration (CC50) in data set [1] amounted to 1.74 µM; in data set [3] it was 1.68 µM; in data set [4] it was 14.8 µM; in data set [5] it was 8.26 µM; in data set [6], 3.99 µM; in data set [7] it was 6.79 µM. The CC50 stood at 7.3 µM in data set [8], 13.1 µM in data set [9] and 3.67 µM in [10]. The “fraction catabolized by dihydropyrimidine dehydrogenase (DPD) to pharmacodynamically inactive metabolites” value in data set [2] is listed as 80-85%.
On to `CC(C)OC(=O)OCn1c(=O)c(F)cn([C@H]2C[C@@H]3OP(=O)(O)OC[C@H]3O2)c1=O` [Compound No. 1, (4aR,6R,7aS)-6-(5-fluoro-3-(((isopropoxycarbonyl)oxy)methyl)-2,4-dioxo-3,4-dihydropyrimidin-1(2H)-yl)tetrahydro-4H-furo[3,2-d][1,3,2]dioxaphosphinin-2-olate 2-oxide triethylamine salt], for which the CC50 in data set [1] was found to be 0.314 µM; in data set [3], 0.021 µM; in data set [4] it was 0.015 µM; in data set [5], 0.706 µM; in data set [6], 0.515 µM; in data set [7], 0.411 µM. Also, the CC50 came to 0.013 µM in data set [8], 0.06 µM in data set [9] and 0.045 µM in [10].
